{
  "source": "the SangsterLogP compilation",
  "data": [
    {"assay": "method code SF, from DOI: 10.1016/j.ejps.2012.10.019, PMID: 23131797", "conditions": "pH 2.0", "values": [
      {"smiles": "CC(C)=CC(=O)OCC(=O)Nc1ccc(S(=O)(=O)N(C)C)cc1", "logD": 2.26},
      {"smiles": "Cc1c(NC(=O)CC(c2ccccc2)c2ccccc2)cccc1-n1cnnn1", "logD": 3.2}
    ]},
    {"assay": "method code SF, from DOI: 10.1016/j.ejps.2012.10.019, PMID: 23131797", "conditions": "pH 5.0", "values": [
      {"smiles": "Cc1c(C(=O)Nc2ccc(S(=O)(=O)N3CCCCCC3)cc2)oc2ccc(F)cc12", "logD": 5.68},
      {"smiles": "COCCCNC(=O)c1ccccc1C(F)(F)F", "logD": 2},
      {"smiles": "COc1cc(C(=O)c2ccc(F)cc2)cc(C(=O)c2ccc(F)cc2)c1", "logD": 4.89},
      {"smiles": "CC1(C)OC(=O)C(=Cc2ccc([N+](=O)[O-])s2)C(=O)O1", "logD": 3.04},
      {"smiles": "CCCS(=O)(=O)c1c(S(=O)(=O)CCC)c2cnccn2c1C(=O)c1ccc(C)cc1", "logD": 3.93},
      {"smiles": "O=C1CC(c2cccc([N+](=O)[O-])c2)CC2=C1C(c1ccco1)N(C(=O)C(F)(F)F)c1ccccc1N2", "note": "(stereo not given)", "logD": 4.68},
      {"smiles": "Cn1ncc(Br)c1C(=O)N1CCCCCC1", "logD": 2.63},
      {"smiles": "Cc1cc(=O)oc2cc(OC(C)C)ccc12", "logD": 3.33},
      {"smiles": "CCCCCC(=O)NC1(CCC)CCCC1", "logD": 4.28},
      {"smiles": "CCc1ccc(OCC(=O)NCCc2ccc(OC)c(OC)c2)cc1", "logD": 4.22},
      {"smiles": "CN(C)S(=O)(=O)c1ccc(C(=O)OC2CCCCC2)cc1", "logD": 4.27},
      {"smiles": "N#Cc1c(SCC(=O)OCc2ccccc2)nsc1SCC(=O)OCc1ccccc1", "logD": 5.6},
      {"smiles": "CN(Cc1ccccc1)S(=O)(=O)c1ccc(NC(=O)Cc2ccc(F)cc2)cc1", "logD": 5.14},
      {"smiles": "COc1ccc2c(C)c(C)c(=O)oc2c1C", "logD": 3.45},
      {"smiles": "CC12CCCC(C(N)=O)(CCC1)C2", "logD": 2.73},
      {"smiles": "FC(F)(F)c1ccc(-n2cc3ccccc3n2)cc1", "logD": 4.42},
      {"smiles": "O=C(CSc1nc2ccccc2s1)c1cccs1", "logD": 4.04},
      {"smiles": "CCC(CC)NC(=O)c1ccc(Cl)c(S(=O)(=O)N2CCCC2)c1", "logD": 3.6},
      {"smiles": "N#CCSc1nc2ccccc2c(=O)n1-c1ccc(OC(F)F)cc1", "logD": 4.17},
      {"smiles": "CC(=O)Oc1cccc(N2C(=O)c3ccc(C(=O)c4ccc5c(c4)C(=O)N(c4cccc(OC(C)=O)c4)C5=O)cc3C2=O)c1", "logD": 5.13},
      {"smiles": "COC(=O)C1=C(C)NC(C)=C(C(=O)OC)C1c1cn(-c2ccccc2)nc1-c1cccc([N+](=O)[O-])c1", "logD": 5.04},
      {"smiles": "COc1ccc(C=O)cc1COc1c(F)c(F)cc(F)c1F", "logD": 4.24},
      {"smiles": "CCCC(=O)N1CC2(C)CN(C(=O)CCC)CC(C)(C1)C2", "logD": 2.69},
      {"smiles": "CN(C(=O)c1c(F)c(F)c(F)c(F)c1F)C(C)(C)C", "logD": 3.45},
      {"smiles": "CC(C)N(Cc1nc(-c2ccccc2)no1)C(=O)c1ccccc1CCc1ccccc1", "logD": 5.98},
      {"smiles": "CCOC(=O)c1cnn(C(=O)c2cnn(-c3ccc([N+](=O)[O-])cc3)c2C(F)(F)F)c1N", "logD": 3.53},
      {"smiles": "O=C(c1c(F)cccc1F)N1CCCC1", "logD": 1.88},
      {"smiles": "COc1ccc(C(=O)OCC(=O)NC2CCCCCCC2)cc1[N+](=O)[O-]", "logD": 4.28},
      {"smiles": "CC1=CC(C(F)(F)F)(C(F)(F)F)C(C#N)=C(N)N1c1ccc(C(N)=O)cc1", "logD": 4.41},
      {"smiles": "Cc1c(OCc2ccccc2)cccc1[N+](=O)[O-]", "logD": 4.41},
      {"smiles": "COC(=O)CN(c1ccccc1)S(=O)(=O)c1ccc(OC)cc1", "logD": 3.43},
      {"smiles": "CCOC(=O)C(C)(C)N(CCC(C)C)S(=O)(=O)c1ccc([N+](=O)[O-])cc1", "logD": 4.75},
      {"smiles": "O=[N+]([O-])c1cccc(-c2noc(CC3CCCCC3)n2)c1", "logD": 5.17},
      {"smiles": "N#Cc1nc2c(S(=O)(=O)c3ccccc3)c(N)n(Cc3ccc(F)cc3)c2nc1C#N", "logD": 4.86},
      {"smiles": "COc1ccc(NC(=O)c2cc(NC(=O)c3ccccc3)cc(C(=O)Nc3ccc(OC)cc3)c2)cc1", "logD": 5.59},
      {"smiles": "CC(Sc1nc2ccccc2c(=O)n1-c1ccc(F)cc1)C(=O)NCc1ccc2c(c1)OCO2", "note": "(stereo not given)", "logD": 4.63},
      {"smiles": "COc1ccc(OC)c(NC(=O)c2ccc(NC3=C(Cl)C(=O)N(C4CCCCC4)C3=O)cc2)c1", "logD": 5.96},
      {"smiles": "CCOc1ccc(NC=C(S(=O)(=O)c2ccc(C)cc2)S(=O)(=O)c2ccc(C)cc2)cc1", "logD": 5.64},
      {"smiles": "Cn1c2ccccc2n2c3nc(C#N)c(C#N)nc3c(C#N)c12", "logD": 3.61},
      {"smiles": "O=C1c2ccccc2C(=O)N1c1ccccc1C(F)(F)F", "logD": 3.55},
      {"smiles": "COc1c(Cl)ccc(Cl)c1C(=O)Nc1ccc(C)cc1C", "logD": 4},
      {"smiles": "O=C1c2ccccc2C(=O)N1c1ccccc1S(=O)C(F)(F)F", "note": "(stereo not given)", "logD": 3.3},
      {"smiles": "CCCCC(=O)NC1C2CC3CC(C2)CC1C3", "note": "(stereo not given)", "logD": 3.8},
      {"smiles": "O=C(COC(=O)c1ccccc1F)Nc1ccccc1", "logD": 3.18}
    ]},
    {"assay": "method code SF, from DOI: 10.1016/j.ejps.2012.10.019, PMID: 23131797", "conditions": "pH 6.5", "values": [
      {"smiles": "CN1C(=CC=CC(=O)C(F)(F)F)C(C)(C)c2ccccc21", "logD": 4.41},
      {"smiles": "O=C(c1cccc([N+](=O)[O-])c1)N(Cc1ccccc1F)N1C(=O)c2ccccc2C1=O", "logD": 4.47},
      {"smiles": "N#CC1=C(N)Oc2c(oc(CO)cc2=O)C1c1ccccc1OCc1ccccc1Cl", "note": "(stereo not given)", "logD": 4.34}
    ]},
    {"assay": "method code SF, from DOI: 10.1016/j.ejps.2012.10.019, PMID: 23131797", "conditions": "pH 7.3", "values": [
      {"smiles": "O=C(c1ccccc1)c1ccc(N2CCN(C(=O)c3c(F)cccc3F)CC2)c(F)c1", "logD": 5.14},
      {"smiles": "O=C(Nc1cc2c(n(CCNc3ncc(C(F)(F)F)cc3Cl)c1=O)CCCC2=O)c1ccc(Cl)cc1", "logD": 5.83},
      {"smiles": "COC(=O)c1cc(OC)c(OC)cc1NC(=O)CSc1nncn1C", "logD": 2.78},
      {"smiles": "O=C(c1cccnc1)N1CCN(S(=O)(=O)c2ccccc2)CC1", "logD": 2.3},
      {"smiles": "Cc1ccnc(N(C(=O)c2cc3c(s2)CCCC3)C(=O)c2cc3c(s2)CCCC3)c1", "logD": 5.76},
      {"smiles": "COc1cccc(Cn2cc(N)cn2)c1", "logD": 1.55},
      {"smiles": "Cc1nccn1S(=O)(=O)c1ccc(Cl)cc1", "logD": 2.93},
      {"smiles": "CCOC(=O)c1c(NC(=O)CSc2nnc(C)s2)sc2c1CCCCC2", "logD": 5.03},
      {"smiles": "COc1ccccc1NC(=O)C1=C(C)Nc2nc(SCc3ccccc3F)nn2C1c1ccncc1", "note": "(stereo not given)", "logD": 4.66},
      {"smiles": "Cn1c(C(=O)N2CCC3(CC2)OCCO3)cc2c(=O)n3ccccc3nc21", "logD": 2.87},
      {"smiles": "COc1cc(OC)c(C2C3=C(CCCC3=O)Nc3ncnn32)cc1OC", "note": "(stereo not given)", "logD": 2.19},
      {"smiles": "Cc1cc(Br)ccc1NC(=O)CSc1nnc(N)s1", "logD": 2.69}
    ]},
    {"assay": "method code SF, from DOI: 10.1016/j.ejps.2012.10.019, PMID: 23131797", "conditions": "pH 10.0", "values": [
      {"smiles": "CCOC(=O)CC1=Nn2c(nnc2-c2cccs2)SC1", "logD": 2.98},
      {"smiles": "COc1ccc(NC(=O)c2sc3sc(C(=O)Nc4ccc(OC)c(OC)c4)c(N)c3c2N)cc1OC", "logD": 4.88},
      {"smiles": "Cn1c(N)c(C(=O)COC(=O)C2CC2)c(=O)n(C)c1=O", "logD": 2.17},
      {"smiles": "CC1CN(c2nc3ccccn3c(=O)c2C=C(C#N)C#N)CC(C)O1", "note": "(stereo not given)", "logD": 3.24},
      {"smiles": "COc1ccc(C(=O)Cn2c(N3CCCCCC3)nc3c2c(=O)n(C)c(=O)n3C)cc1", "logD": 4.42},
      {"smiles": "CN(C)S(=O)(=O)c1cccc(C(=O)NCCc2ccc(Cl)cc2Cl)c1", "logD": 4.48}
    ]},
    {"assay": "method code SF, from DOI: 10.1016/j.ejps.2012.10.019, PMID: 23131797", "conditions": "pH 10.5", "values": [
      {"smiles": "CC1=NN(c2ccccc2)C(=O)C1Sc1nc(N)c(C#N)c(-c2ccc(C)cc2)c1C#N", "note": "(stereo not given)", "logD": 4.99},
      {"smiles": "CCn1c(SCc2ccccc2F)nc2sc(C)c(C)c2c1=O", "logD": 5.86},
      {"smiles": "C=C(C)CSc1nnc(-c2cccc(S(=O)(=O)N3CCOCC3)c2)n1C1CCCC1", "logD": 4.73},
      {"smiles": "COC(=O)CCNc1nc(-c2cccnc2)nc2sc3c(c12)CCCC3", "logD": 4.69},
      {"smiles": "Nc1cccc2c1C(=O)N(C(=O)c1cc(-c3ccccc3Cl)nc3ccccc13)C2=O", "logD": 4.63},
      {"smiles": "Cc1cc(C)n2c(SCc3ccc(C(=O)c4ccccc4)cc3)nnc2n1", "logD": 4.43},
      {"smiles": "CC(C)(C)c1cc(Cc2ccccc2)n[nH]1", "logD": 4.35},
      {"smiles": "O=C(CSc1nnc(-c2ccccc2)n1-c1ccccc1)N1CCN(C(=O)c2ccccc2)CC1", "logD": 4.64},
      {"smiles": "CCNc1nc(NC(C)C)nc(Oc2ccc(OCC)nn2)n1", "logD": 3.14},
      {"smiles": "Cc1nn(C)cc1-c1cc(C(F)(F)F)n2ncc(C(=O)N(C3CCCCC3)C3CCCCC3)c2n1", "logD": 5.81},
      {"smiles": "COc1ccc(S(=O)(=O)N2CCCCCC2)cc1C(=O)OCC(=O)c1c(N)n(C)c(=O)n(C)c1=O", "logD": 4.59},
      {"smiles": "CC(=O)Oc1cc(C(=O)Nc2ccc(Oc3ccccc3)cc2)cc(OC(C)=O)c1OC(C)=O", "logD": 2.89},
      {"smiles": "COCCn1c(C)cc(C(=O)CSc2nnc3[nH]c4ccccc4n23)c1C", "logD": 3.45}
    ]}
  ]
}
